Measurements published in US5521193A, “Benzimidazole compounds” (G. D. Searle & Co., priority 1995, dated 1996).

Experiments:
5-HT4 receptor = target: T1, 5-HT4 receptor (Rattus norvegicus, UniProt Q62758); experiment: biochemical; details: carbachol (3 μM)-contracted rat esophagus TMM; 37° C.; tissues from 5 rats; read-out: 5-HT4 Agonism (Rat TMM) In Vitro Assay: EC50 Values
T1 construct: One 2 cm segment of intrathoracic esophagus proximal to the diaphragm was removed from male rats; from tissue; host or cells: rat intrathoracic oesophagus, inner tunica muscularis mucosae
Description: (§1) 5-HT4 agonist activity was determined in the in vitro rat tunice muscularis mucosae (TMM) assay. (Baxter et el., Naunyn Schmied Arch. Pharmacol, 1991, 343,439). The 5-HT4 agonist or antagonist activity and/or 5-HT3 antagonist activity of the compounds of the invention herein, can be determined by the assays as described herein, without undue experimention.
Agonist activity was determined utilizing relaxation of carbachol-contracted rat tunica muscularis mucosae. One 2 cm segment of intrathoracic esophagus proximal to the diaphragm was removed from male rats, weighing approximately 300 gm, and the outer muscle layers removed. The inner tunica muscularis mucosa was mounted under 0.2-0.3 g of tension in a tissue bath containing oxygenated Tyrode's solution at 37° C. […] Following a 30 min equilibrium period, tissues were isometrically contracted with carbachol (3 μM) to obtain a tonic contraction. A stable plateau was obtained within 20 min when test compound was added cumulatively to relax the muscle strip. EC50 values were obtained for each agonist in tissues from 5 rats.

5-HT3 receptor = target: T2, 5-HT3 receptor (Rattus norvegicus, UniProt P35563); experiment: Serotonin (5-HT3) radioligand binding, [3H]-GR65630, rat brain cortex membranes; details: for Ki: [3H]-GR65630 0.2 nM, 60 min, 22° C.
T2 construct: Brain cortices were obtained from male rats and a membrane fraction prepared by standard techniques; from tissue; host or cells: rat brain cortex membranes
T2 sequence (P35563 24-483): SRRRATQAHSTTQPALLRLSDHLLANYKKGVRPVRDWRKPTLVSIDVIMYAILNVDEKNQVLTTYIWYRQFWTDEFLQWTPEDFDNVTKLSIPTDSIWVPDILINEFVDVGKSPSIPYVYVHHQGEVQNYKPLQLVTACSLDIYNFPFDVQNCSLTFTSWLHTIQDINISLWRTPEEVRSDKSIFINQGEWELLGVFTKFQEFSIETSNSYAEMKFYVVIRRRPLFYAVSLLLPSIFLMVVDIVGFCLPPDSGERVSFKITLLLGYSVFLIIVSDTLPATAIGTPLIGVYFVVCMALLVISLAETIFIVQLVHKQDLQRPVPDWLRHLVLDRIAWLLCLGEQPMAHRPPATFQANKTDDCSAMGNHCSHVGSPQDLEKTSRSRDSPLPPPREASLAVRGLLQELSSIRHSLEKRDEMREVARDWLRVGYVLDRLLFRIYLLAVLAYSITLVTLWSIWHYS
Description: GR65630 binds to the 5-HT3 receptor. Brain cortices were obtained from male rats and a membrane fraction prepared by standard techniques. 0.04 mg of membrane prep was incubated with 0.2 nM […] for 60 minutes at 22° C. […] Membranes were filtered and washed times and the filters were counted to determine [3H]-GR65630 specifically bound. Kilpatrick G. J., Jones B. J. and Tyers M. B. Identification and distribution of 5-HT3 receptors in rat brain using radioligand binding assay. Nature, 330 : 746-748, 1987.

5-HT3 = experiment: Bezold-Jarisch Reflex (inhibition of 5-HT-induced bradycardia in anesthetized mice); format: in vivo; details: i.p., 30 min before 5-HT 0.25 mg/kg i.v.; >50 percent reduction in bradycardic response vs vehicle considered significant; pentobarbital anesthetized mice
Description: as §1
The compound to be evaluated was administered i.p. (mg/kg) to a group of 3 mice. […] A greater than 50 percent (>50) reduction in the bradycardic response relative to vehicle-treated control mice was considered significant.
This method has been described by Saxena, P. R. and Lawang, A., Arch. Int. Pharmacodyn., 277:235-252, 1985.
The assay results for the compounds of the present invention and their Minimum Effective Dose (MED) and the reference compounds and their MEDs are recorded in Table I.

T1 sequence (Q62758 whole entry): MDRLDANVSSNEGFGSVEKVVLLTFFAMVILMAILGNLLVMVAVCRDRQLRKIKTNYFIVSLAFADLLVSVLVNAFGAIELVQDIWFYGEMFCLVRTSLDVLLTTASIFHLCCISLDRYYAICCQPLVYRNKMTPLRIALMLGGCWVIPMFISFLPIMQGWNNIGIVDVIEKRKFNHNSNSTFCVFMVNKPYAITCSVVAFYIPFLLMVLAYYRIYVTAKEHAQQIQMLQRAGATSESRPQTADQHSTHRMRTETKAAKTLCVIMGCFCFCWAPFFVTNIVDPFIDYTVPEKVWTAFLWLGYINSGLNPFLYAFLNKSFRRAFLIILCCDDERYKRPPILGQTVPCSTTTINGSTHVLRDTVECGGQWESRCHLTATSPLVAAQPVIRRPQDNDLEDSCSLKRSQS

Row | SMILES | EC50 (5-HT4 receptor) [nM] | Ki (5-HT3 receptor) [nM] | further results
1 | CC(C)n1c(=O)n(C(=O)N[C@H]2C[C@@H]3CN(C)C[C@@H]3C2)c2ccccc21 [Example 14A] | 874 |  | 
2 | CC(C)n1c(=O)n(C(=O)N[C@@H]2[C@@H]3C[C@H]4CN(C3)C[C@H]42)c2ccccc21 (relative stereo) [Example 24, N-(hexahydro-1H-2,5β-methano-3aα,6aα-cyclopenta [c]pyrrol-4α-yl)-2,3-dihydro-3-(1-methylethyl)-2-oxo 1H-benzimidazole-1-carboxamide] | 1510 | 2 | 
3 | CCn1c(=O)n(C(=O)NC2C3CC4CC2CN(C4)C3)c2ccccc21 (stereo not shown) [Example 15, N-(1-azatricyclo[3.3.1.1^3,7]decan-4-yl)-3-ethyl-2,3-dihydro-2-oxo 1H-benzimidazole-1-carboxamide] | 4580 | 92 | 
4 | CCn1c(=O)n(C(=O)NC2C3CC4CC2CN(C4)C3)c2cc(Cl)ccc21 (stereo not shown) [Example 18, N-(1-azatricyclo[3.3.1.1^3,7]decan-4-yl)-6-chloro-3-ethyl-2,3-dihydro 2-oxo-1H-benzimidazole-1-carboxamide] |  | 1200 | 
5 | CC(C)n1c(=O)n(C(=O)NCC2C3CC4CC2CN(C4)C3)c2cc(Cl)ccc21 (stereo not shown) [Example 22C, N-(1-azatricyclo[3.3.1.1^3,7]decan-4-ylmethyl)-6-chloro-2,3-dihydro-3-(1-methylethyl) 2-oxo-1H-benzimidazole-1-carboxamide] | 722 |  | 
6 | CC(C)n1c(=O)n(C(=O)NCCC23CCCN2CCC3)c2cc(Cl)c(N)cc21 [Example 12B, 6-Chloro-5-amino-N-[2-(hexahydro-7aH-pyrrolizin-7a-yl)ethyl]-2,3-dihydro-3-(1-methylethyl)-2-oxo-1H-benzimidazole-1-carboxamide] | 374 |  | 
7 | CC(C)n1c(=O)n(C(=O)NCC23CCCN2CCC3)c2ccccc21 [Example 14, N-[(hexahydro-7aH-pyrrolizin-7a-yl)methyl]-2,3-dihydro-3-(1-methylethyl) 2-oxo-1H-benzimidazole-1-carboxamide] | 3830 | 36 | 
8 | CC(C)n1c(=O)n(C(=O)NC[C@H]2CN3CC[C@H]2C3)c2ccccc21 (relative stereo) [Example 36, N-[(exo-1-azabicyclo[2.2.1]heptan-3-yl)methyl-]-2,3-dihydro-3-(1-methylethyl) 2-oxo-1H-benzimidazole-1-carboxamide] | 302 |  | 
9 | CC(C)n1c(=O)n(C(=O)NCC2C3CC4CC2N(C4)C3)c2ccccc21 (stereo not drawn) [Example 29, N-[(Hexahydro-2β,6β-methano-1H, 7aα-pyrrolizin-1β-yl)methyl]2,3-dihydro-3-(1-methylethyl)-2-oxo-1H-benzimidazole-1-carboxamide] | 1630 |  | 
10 | CC(C)n1c(=O)n(C(=O)NCC2C3CC4CC2N(C4)C3)c2ccccc21 (stereo not drawn) [Example 30, N-[(Hexahydro-2β,6β-methano-1H, 7aα-pyrrolizin-1α-yl)methyl]2,3-dihydro-3-(1-methylethyl)-2-oxo-1H-benzimidazole-1-carboxamide] | 219 |  | 
11 | CC(C)n1c(=O)n(C(=O)NCCC23CCCN2CCC3)c2cc(Cl)ccc21 [Example 12A, 6-Chloro-N-[2-(hexahydro-7aH-pyrrolizin-7a-yl)ethyl]2,3-dihydro-3-(1-methylethyl)-2-oxo-1H-benzimidazole 1-carboxamide] | 1360 |  | 
12 | CC(C)n1c(=O)n(C(=O)NC2C3CC4CC2CN(C4)C3)c2cc(Cl)ccc21 (stereo not shown) [Example 16, N-(1-azatricyclo[3.3.1.1^3,7]decan-4-yl)-6-chloro-2,3-dihydro-3-(1-methylethyl) 2-oxo-1H-benzimidazole-1-carboxamide] | 10000 | 1200 | 
13 | CC(C)n1c(=O)n(C(=O)NC[C@H]2CCN3CCC[C@H]23)c2ccccc21 (relative stereo) [Example 23, cis-N-[(hexahydro-1H-pyrrolizin-1-yl)methyl]-2,3-dihydro-3-(1-methylethyl) 2-oxo-1H-benzimidazole-1-carboxamide] |  |  | Minimum Effective Dose (MED) (5-HT3): 1 mg/kg
14 | CCn1c(=O)n(C(=O)NC2C3CC4CC2CN(C4)C3)c2cc(Cl)ccc21 (stereo not shown) [Example 21, N-(1-azatricyclo[3.3.1.1^3,7]decan-4-yl)-6-chloro-3-ethyl-2,3-dihydro 2-oxo-1H-benzimidazole-1-carboxamide] | 2140 | 55 | 
15 | CN1C2CCCC1CC(NC(=O)c1nn(C)c3ccccc13)C2 (stereo not shown) [BRL-43694] |  |  | Minimum Effective Dose (MED) (5-HT3): 0.05 mg/kg
16 | CC(C)n1c(=O)n(C(=O)NCCC23CCCN2CCC3)c2ccc(Cl)cc21 [Example 12, 5-chloro-N-[2-(hexahydro-7aH-pyrrolizin-7a-yl)ethyl]2,3-dihydro-3-(1-methylethyl)-2-oxo-1H-benzimidazole 1-carboxamide] | 9470 | 2800 | 
17 | O=c1[nH]c2ccccc2n1CCCN1CCC(n2c(=O)[nH]c3cc(Cl)ccc32)CC1 [domperidone] |  |  | Minimum Effective Dose (MED) (5-HT3): > 10 mg/kg
18 | CCn1c(=O)n(C(=O)NC2C3CC4CC2CN(C4)C3)c2ccccc21 (stereo not shown) [Example 20, N-(1-azatricyclo[3.3.1.1^3,7]decan-4-yl)-3-ethyl-2,3-dihydro-2-oxo-1H-benzimidazole 1-carboxamide] | 10000 | 19 | 
19 | CC[C@@H](CO)NC(=O)[C@@H]1C=C2c3cccc4c3c(cn4C)C[C@H]2N(C)C1 [methylsergide] |  |  | Minimum Effective Dose (MED) (5-HT3): > 10 mg/kg
20 | CC(C)n1c(=O)n(C(=O)NCC2C3CC4CC2CN4C3)c2ccccc21 (stereo not shown) [Example 32, N-(Hexahydro-2,6-methano-1H-pyrrolizin-8-ylmethyl]-2,3-dihydro-3(1-methylethyl)-2-oxo-1H-benzimidazole-1-carboxamide] | 1320 |  | 
21 | Cc1nc[nH]c1CCC(=O)c1cn(C)c2ccccc12 [GR65630, reference compound] |  |  | Bmax (5-HT3 receptor; [3H]-GR65630, rat brain cortex membranes): 154 fmol/mg protein
22 | CCn1c(=O)n(C(=O)NC2C3CC4CC2CN(C4)C3)c2ccc(Cl)cc21 (stereo not shown) [Example 22, N-(1-azatricyclo[3.3.1.1^3,7]decan-4-yl)-5-chloro-3-ethyl-2,3-dihydro 2-oxo-1H-benzimidazole-1-carboxamide] |  | 360 | 
23 | CC(C)n1c(=O)n(C(=O)NCC2C3CC4CC2CN(C4)C3)c2ccccc21 (stereo not shown) [Example 19B, N-(1-azatricyclo[3.3.1.1.^3,7]decan-4-ylmethyl)-2,3-dihydro-3-(1-methylethyl) 2-oxo-1H-benzimidazole-1-carboxamide] | 926 |  | 
24 | CCn1c(=O)n(C(=O)NC2C3CC4CC2CN(C4)C3)c2ccc(Cl)cc21 (stereo not shown) [Example 19, N-(1-azatricyclo[3.3.1.1^3,7]decan-4-yl)-5-chloro-3-ethyl-2,3-dihydro 2-oxo-1H-benzimidazole-1-carboxamide] |  | 1200 | 
25 | CC(C)n1c(=O)n(C(=O)NCC23CC4CN(CC4C2)C3)c2cc(Cl)ccc21 [Example 34, N-[(Hexahydro-2,5β-methano-1H-3aα,6aα-cyclopenta[c]-pyrrol-5-yl)methyl]-6-chloro-2,3-dihydro-3-(1-methylethyl)-2-oxo-1-benzimidazole-1-carboxamide] | 248 |  | 
26 | CC(C)n1c(=O)n(C(=O)NC[C@@H]2CN3CC[C@H]2C3)c2ccccc21 (relative stereo) [Example 35, N-[(endo-1-azabicyclo[2.2.1]heptan-3-yl)methyl-]-2,3-dihydro-3-(1-methylethyl) -2-oxo-1H-benzimidazole-1-carboxamide] | 294 |  | 
27 | CC(C)n1c(=O)n(C(=O)NCC23CC4CN(CC4C2)C3)c2ccccc21 [Example 33, N-[(Hexahydro-2,5β-methano-1H-3aα,6aα-cyclopenta-[c]pyrrol-5-yl)methyl]-2,3-dihydro 3-(1-methylethyl)-2-oxo-1H-benzimidazole-1-carboxamide] | 337 |  | 
